Source: ChEMBL document CHEMBL1153927, “Benzimidazolone-based serotonin 5-HT1A or 5-HT7R ligands: synthesis and biological evaluation” (Bioorg Med Chem Lett, 2009)

Columns and labels:
[1] = molecular target: 5-hydroxytryptamine receptor 7 (Homo sapiens, UniProt P34969); test: Inhibition of human 5HT7 receptor expressed in HEK293 cells by competitive binding assay; type: cell-based
[2] = molecular target: T1, 5-hydroxytryptamine receptor 1A (Rattus norvegicus, UniProt P19327); test: Inhibition of rat hippocampus 5HT1A receptor by competitive binding assay; type: tissue-based
T1 sequence (P19327 whole entry): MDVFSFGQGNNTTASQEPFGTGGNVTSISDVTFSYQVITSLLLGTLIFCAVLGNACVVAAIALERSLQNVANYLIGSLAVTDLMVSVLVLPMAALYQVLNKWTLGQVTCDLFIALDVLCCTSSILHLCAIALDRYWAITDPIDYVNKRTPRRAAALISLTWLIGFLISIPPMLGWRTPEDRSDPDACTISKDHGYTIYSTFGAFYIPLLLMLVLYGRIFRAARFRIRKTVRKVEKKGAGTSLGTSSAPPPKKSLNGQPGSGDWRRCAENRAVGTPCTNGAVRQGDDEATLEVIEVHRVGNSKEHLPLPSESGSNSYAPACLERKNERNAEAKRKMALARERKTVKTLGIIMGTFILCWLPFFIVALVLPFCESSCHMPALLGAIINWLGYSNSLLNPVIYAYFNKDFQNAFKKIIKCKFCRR

Chain of 5-hydroxytryptamine receptor 7 (P34969 whole entry): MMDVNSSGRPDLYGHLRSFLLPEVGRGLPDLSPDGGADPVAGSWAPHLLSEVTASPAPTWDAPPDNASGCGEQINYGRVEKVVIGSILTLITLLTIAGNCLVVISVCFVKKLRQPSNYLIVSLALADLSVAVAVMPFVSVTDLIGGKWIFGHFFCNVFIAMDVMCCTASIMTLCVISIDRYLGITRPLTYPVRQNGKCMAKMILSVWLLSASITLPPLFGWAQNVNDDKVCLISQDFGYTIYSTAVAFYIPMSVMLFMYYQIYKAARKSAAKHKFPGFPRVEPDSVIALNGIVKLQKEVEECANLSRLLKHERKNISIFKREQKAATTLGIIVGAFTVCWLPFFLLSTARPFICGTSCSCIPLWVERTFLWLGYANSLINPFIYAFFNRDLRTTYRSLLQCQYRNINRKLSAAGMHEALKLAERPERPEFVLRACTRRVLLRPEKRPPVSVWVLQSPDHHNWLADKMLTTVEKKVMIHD

Row | Compound | Ki [1] [nM] | Ki [2] [nM]
1 | COc1ccccc1N1CCN(Cc2ccn(-c3ccccc3C)c2)CC1 | 4.3 | –
2 | O=c1n(CCN2CCN(c3ccccc3)CC2)c2ccccc2n1-c1ccccc1 | 1230 | 467
3 | O=c1[nH]c2ccccc2n1CCCCN1CCN(c2ccccc2)CC1 | 48 | 84
4 | COc1ccccc1N1CCN(CCCCn2c(=O)[nH]c3ccccc32)CC1 | 26 | 6
5 | COc1ccccc1N1CCN(CCCCCn2c(=O)[nH]c3ccccc32)CC1 | 38 | 33
6 | COc1ccc(-n2c(=O)n(CCN3CCN(c4ccccc4OC)CC3)c3ccccc32)cc1 | 296 | 22
7 | COc1ccc(-n2c(=O)n(CCCN3CCN(c4ccccc4OC)CC3)c3ccccc32)cc1 | 168 | 26
8 | COc1ccc(-n2c(=O)n(CCCCN3CCN(c4ccccc4OC)CC3)c3ccccc32)cc1 | 267 | 36
9 | COc1ccccc1N1CCN(CCn2c(=O)[nH]c3ccccc32)CC1 | 1840 | 25
10 | COc1cccc(-n2c(=O)n(CCN3CCN(c4ccccc4)CC3)c3ccccc32)c1 | 864 | 646
11 | COc1ccc(-n2c(=O)n(CCN3CCN(c4ccccc4)CC3)c3ccccc32)cc1 | 566 | 340
12 | Cc1ccccc1N1CCN(CCn2c(=O)n(-c3ccccc3)c3ccccc32)CC1 | 1870 | 168
13 | Cc1ccccc1-n1c(=O)n(CCN2CCN(c3ccccc3)CC2)c2ccccc21 | 902 | 636
14 | COc1ccccc1N1CCN(CCCn2c(=O)[nH]c3ccccc32)CC1 | 40 | 3.4
15 | O=c1[nH]c2ccccc2n1CCCN1CCN(c2ccccc2)CC1 | 243 | 26
16 | O=c1[nH]c2ccccc2n1CCCCCCN1CCN(c2ccccc2)CC1 | 20 | 48
17 | O=c1[nH]c2ccccc2n1CCCCCN1CCN(c2cccc(Cl)c2)CC1 | 11 | 66
18 | O=c1[nH]c2ccccc2n1CCN1CCN(c2ccccc2)CC1 | 1030 | 392
19 | O=c1[nH]c2ccccc2n1CCCCCN1CCN(c2ccccc2)CC1 | 6 | 269
20 | COc1cccc(-n2c(=O)n(CCN3CCN(c4ccccc4C)CC3)c3ccccc32)c1 | 2500 | 182
21 | Cc1ccccc1N1CCN(CCn2c(=O)n(-c3ccccc3C)c3ccccc32)CC1 | 18000 | 375
22 | O=c1[nH]c2ccccc2n1CCCCCN1CCN(c2ccc(Cl)cc2)CC1 | 7 | 454
23 | COc1ccccc1N1CCN(CCCCCCn2c(=O)[nH]c3ccccc32)CC1 | 78 | 12
